# Results published in patent US12146871B2, “Method and device for physicochemical characterization of materials” (THE SOLUBILITY COMPANY OY, priority 2016, dated 2024).
# Test: partition coefficient from intrinsic solubility in octanol and water by image analysis of individual crystals
# Assay type: physicochemical
# Conditions: octanol and water (separate solubilities); from aqueous solubility of the unionized form (pH 2-3) and solubility in octanol
# Method: A solubility-pH profile was performed in aqueous buffers over the physiologically relevant range of pH 2-9. […] Additionally, using logP, pKa and pH data, the logD value was determined as a function of pH. All parameters determined using the present method correlated with theory and literature data. Thus, by only observing and characterizing one variable, i.e. the particle(s) size decrease of an individual crystal, it is possible to mine, in a high-content analysis (HCA) manner, a full physicochemical profile of six fundamental material characteristics for a material. Analysis device was constructed as a flow-through device consisting of two resistant flat metal plates. In the lower thereof a 1 mm hole was drilled as an outlet channel. The top metal plate hosted the inlet channel and was prepared with a glass window to facilitate detecting. A 0.2 μm inorganic membrane filter (Whatman nuclepore) was placed on the bottom plate and the particle(s) to be analyzed placed on top of the portion of the membrane filter being above the outlet channel. […] Equilibrium solubility, S was calculated from image analysis data based on a reorganized single-particle diffusion layer model dissolution rate equation, where S0 is the intrinsic solubility of the unionized form. Further, based on intrinsic solubility data in octanol and water the partition coefficient (logP) was determined according to, […]
smiles,measurement,value
COc1ccc2c(c1)c(CC(=O)O)c(C)n2C(=O)c1ccc(Cl)cc1 [indomethacin],logP,4.1
